# Laboratory results published in US20070225348A1, “Amino acid composition for improving glucose tolerance” (priority 2005, published 2007).
# Test system: Zucker Diabetic Fatty rats (model with type 2 diabetes mellitus)
# Test: Experiment 2: blood glucose response after oral gavage of glucose with amino acid test mixture or isoleucine solution
# Assay type: in vivo, rat
# Conditions: oral gavage 8 ml/kg with glucose, measured at 30, 60, 90 and 120 minutes, control 22.5% glucose solution
# Description: The control formula (22.5% glucose solution) and the amino acid test formula described in Experiment 1 are prepared and subsequently used in this second experiment, along with an isoleucine mixture as described below. In this second experiment, a high dose isoleucine mixture is prepared by adding L-isoleucine ([…]) to 50 ml beaker followed by 10 ml of 1N HCL. The beaker contents are mixed until dissolved, and thereafter to it is added with agitation 25 ml of a 45% glucose solution. The pH of the resulting mixture is adjusted to 7.0 (+/−1.0) with a 50% sodium hydroxide solution (buffer may be added to stabilize pH). The pH adjusted mixture is transferred to a 50 ml volumetric and brought to volume with distilled water. The mixture is transferred to a beaker with stir bar and continually stirred while filling syringes. Zucker Diabetic Fatty rats, a model of type 2 diabetes, are received at the animal facility for at least one week before testing. Each is weighed the day before the experiment and then assigned to one of […] matched for body weight. After an overnight fast, each rat is weighed and then dosed at 8 ml/kg body weight (oral gavage) with the glucose control, the amino acid test mixture, or the isoleucine solution. Blood glucose concentrations are then measured from the tip of the tail of each animal at 30, 60, 90 and 120 minutes following the gavage.
smiles,measurement,value
"CC[C@H](C)[C@H](N)C(=O)O [high dose isoleucine, L-isoleucine]",blood glucose concentrations relative to the control,does not significantly affect blood glucose concentrations
